Source: article PMC9124818 (Pharmacology Research & Perspectives, 2022)
Where “and” joins values, the source holds several entries; their conditions need not be identical. Identical values can stand only once. Like-named read-outs stand apart in the source and are kept apart here.

Assays:
[1] = tested on: CYP3A4/5; test: Direct CYP450 inhibition in human liver microsomes (midazolam 1'-hydroxylation; testosterone 6β-hydroxylation); settings: for Basic model: R1: R1 = 1 + (Imax,u/Ki,u); for Basic model: R1,gut: R1,gut = 1 + (Igut/Ki,u)
Source text: (§1) A mixed‐gender pool of 200 individual human liver microsomal samples was used.
(§2) This LIMS utilizes the Levenberg-Marquardt algorithm to perform nonlinear regression fitting of the data to the following 4-parameter sigmoidal-logistic IC50 equation:
(§3) As percent of control values are utilized, the Min is set to 0 and the Max is set to 100 (or other values, as appropriate). […] Therefore, when an IC50 value falls outside the concentration range studied, the IC50 values are reported to be greater than the highest concentrations of test article evaluated.

[2] = target: T1, CYP2B6 (Homo sapiens, UniProt P20813); test: Direct CYP450 inhibition in human liver microsomes (efavirenz 8-hydroxylation); settings: for Inhibition (%): FFA up to 60 µM, nFFA up to 100 µM; for Basic model: R1: R1 = 1 + (Imax,u/Ki,u)
T1 sequence (P20813 1-491): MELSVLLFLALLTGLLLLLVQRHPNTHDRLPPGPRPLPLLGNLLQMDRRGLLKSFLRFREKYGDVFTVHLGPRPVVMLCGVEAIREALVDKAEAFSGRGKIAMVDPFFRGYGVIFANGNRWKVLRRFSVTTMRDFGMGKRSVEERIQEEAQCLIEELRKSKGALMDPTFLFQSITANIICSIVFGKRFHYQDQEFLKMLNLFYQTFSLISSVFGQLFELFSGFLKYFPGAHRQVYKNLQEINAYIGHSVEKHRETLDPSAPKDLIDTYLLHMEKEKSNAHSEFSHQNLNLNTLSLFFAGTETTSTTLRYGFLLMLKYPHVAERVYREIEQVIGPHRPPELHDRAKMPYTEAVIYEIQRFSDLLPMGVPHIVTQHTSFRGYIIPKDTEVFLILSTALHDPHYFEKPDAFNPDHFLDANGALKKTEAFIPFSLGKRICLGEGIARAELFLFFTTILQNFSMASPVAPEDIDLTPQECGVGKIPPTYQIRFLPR
Source text: as §1, §2, §3

[3] = tested on: cultured human hepatocytes; test: Cytotoxicity: LDH release and microscopic evaluation; format: cell-based; settings: for hepatocyte morphology: up to 40 μM FFA or 50 μM nFFA for 3 consecutive days; for LDH release: up to 40 μM FFA or 50 μM nFFA, all three hepatocyte cultures
Protocol: Data were processed with KC4 Signature software (version 3.4, Rev 21, BioTek Instruments, Inc.) and graphed with Microsoft Excel 2003 (Microsoft Corp.). Percent LDH release was calculated based on the following equations: […]

[4] = target: T2, OCT2 (Homo sapiens, UniProt O15244); test: Transporter inhibition, uptake of [14C]-metformin in HEK293 cells; format: in vitro ADME; settings: probe [14C]-metformin 10 μM
T2 construct: host or cells: HEK293
T2 sequence (O15244 1-555): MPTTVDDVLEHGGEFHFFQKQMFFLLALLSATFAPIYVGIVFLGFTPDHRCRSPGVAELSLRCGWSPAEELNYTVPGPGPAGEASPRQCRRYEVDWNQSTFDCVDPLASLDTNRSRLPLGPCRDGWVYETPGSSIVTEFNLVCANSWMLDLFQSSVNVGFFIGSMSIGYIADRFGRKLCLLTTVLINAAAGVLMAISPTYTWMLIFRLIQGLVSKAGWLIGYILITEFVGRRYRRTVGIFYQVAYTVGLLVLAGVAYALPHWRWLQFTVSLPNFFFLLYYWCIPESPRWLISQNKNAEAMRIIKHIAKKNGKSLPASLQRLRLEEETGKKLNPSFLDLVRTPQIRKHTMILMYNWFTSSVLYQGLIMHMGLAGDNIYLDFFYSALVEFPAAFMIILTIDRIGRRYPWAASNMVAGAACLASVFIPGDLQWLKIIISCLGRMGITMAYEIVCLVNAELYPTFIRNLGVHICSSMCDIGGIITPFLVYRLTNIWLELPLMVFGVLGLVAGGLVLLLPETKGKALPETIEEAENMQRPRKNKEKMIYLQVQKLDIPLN
Source text: Cells were then washed, lysed with scintillation cocktail, and analyzed for the probe substrate with a MicroBeta scintillation counter (PerkinElmer, Hopkinton, MA). Transcellular transporter assay conditions are described in Supplemental Table 1. Calculation of IC50 values was based on bidirectional permeability of probe substrate with and without the inhibitor in MDCKII cells expressing BCRP and in Caco‐2 cells expressing P‐gp, and transporter‐dependent uptake of probe substrate in HEK293 cells expressing all other transporters (Supplemental Table 1).
The transporter-specific uptake of the probe substrate in cells was determined by subtracting the accumulation in the control cells from the accumulation in the transporter-expressing cells.

[5] = Plasma protein binding, Rapid Equilibrium Device; format: in vitro ADME; settings: pooled rat or dog plasma, pH 7.4, range
Protocol: In vitro plasma protein binding was then determined by using the Rapid Equilibrium Device (RED) with a molecular weight cutoff of 8 kDa (Thermo Fisher Scientific, Inc., Waltham, MA). […] The internal standard was niflumic acid. […] Protein binding was determined by adding a 300‐μL aliquot of the test sample or the control sample to the sample chamber of the RED and adding a 500‐μL aliquot of PBS (pH 7.4) to the buffer chamber. The device unit was sealed and incubated at 37°C for 4 h with gentle shaking (~750 rpm). After dialysis, three aliquots of the test samples (50 μL) were collected from both sample and buffer chambers and were mixed with 50 μL of methanol as “donor samples” and “acceptor samples,” respectively. […] A detailed description of the LC‐MS/MS process can be found in the Supplemental Material. Supernatant fractions were analyzed by LC‐MS/MS using an Acquity Ultra Performance Liquid Chromatography system with ethylene bridged hybrid (BEH) C18 columns (2.1 × 50 mm, 1.7 µm; Waters Corporation; Milford, MA) coupled to an API4000 mass spectrometer (AB Sciex). […] Samples were prepared in triplicate and were dialyzed for 4 h. […] Protein binding was calculated as follows: Proteinbindingratio%=100‐Unboundratio%, where Unboundratio%=AcceptorSampleConcentration/DonorSampleConcentration.

[6] = direct inhibition, substrate efavirenz

Structure (SMILES) | Basic model: Potential for clinical inhibition (R1) ([1]; substrate midazolam) | Static mechanistic model: Potential for clinical inhibition ([1]; substrate midazolam) | Basic model: Potential for clinical inhibition (R1) ([1]; substrate testosterone) | Static mechanistic model: Potential for clinical inhibition ([1]; substrate testosterone) | Basic model: R1 ([1]; substrate testosterone) | Inhibition (%) [2, 6] [%] | Basic model: Potential for clinical inhibition ([2]; substrate efavirenz) | Static mechanistic model: Potential for clinical inhibition ([2]; substrate efavirenz) | Basic model: R1 ([2]; substrate efavirenz) | hepatocyte morphology [3] | LDH release [3] [% positive control] | other results
CC(N)Cc1cccc(C(F)(F)F)c1.Cl (stereo not shown) [nFFA, [1‐(3‐trifluoromethyl)phenyl]propan‐2‐amine hydrochloride] | No (Potential to inhibit if R1 ≥ 1.02) | No (Potential to inhibit if AUCR ≥ 1.25) | No (Potential to inhibit if R1 ≥ 1.02) | No (Potential to inhibit if AUCR ≥ 1.25) | 1.00 | 23 | No (Potential to inhibit if R1 ≥ 1.02) | No (Potential to inhibit if AUCR ≥ 1.25) | 1.00 | No morphological changes | ≤ 13.8 | IC50 ([1]; direct inhibition, human liver microsomes, substrate midazolam): > 100 µM; IC50 ([1]; direct inhibition, human liver microsomes, substrate testosterone): > 100 µM; IC50 ([2]; direct inhibition, human liver microsomes, substrate efavirenz): > 100 µM; IC50 [4]: 5.21 µM and 5.2 µM
CCNC(C)Cc1cccc(C(F)(F)F)c1 (racemic) [FFA, (RS)‐ethyl(α‐methyl‐3‐trifluoromethylphenethyl)amine, reference compound] | No No ^b (Potential to inhibit if R1 ≥ 1.02) | No (Potential to inhibit if AUCR ≥ 1.25) | No No ^b (Potential to inhibit if R1 ≥ 1.02) | No (Potential to inhibit if AUCR ≥ 1.25) | 1.00 | 6.1 | No (Potential to inhibit if R1 ≥ 1.02) | No (Potential to inhibit if AUCR ≥ 1.25) | 1.01 | No morphological changes | ≤ 8.5 | IC50 ([1]; both, human, pooled human liver microsomes, pH 7.4, probe midazolam (1'-hydroxylation)): > 600 µM; IC50 ([1]; both, human, pooled human liver microsomes, pH 7.4, probe testosterone (6β-hydroxylation)): > 600 µM; Basic model: Potential for clinical inhibition (R1,gut) ([1]; substrate midazolam): No No ^b (Potential to inhibit if R1,gut ≥ 11); Basic model: R1,gut ([1]; substrate midazolam): NC R1,gut = 1.78; Basic model: Potential for clinical inhibition (R1,gut) ([1]; substrate testosterone): No No ^b (Potential to inhibit if R1,gut ≥ 11); Basic model: R1,gut ([1]; substrate testosterone): 1.81; IC50 [2]: > 60 µM; fraction unbound at 4 h [5]: 0.378 to 0.538
